Patent US20250147039A1, “Compounds for complexation of rare earth elements and/or s-, p-, d- block metals, their coordination compounds, peptide conjugates, method of their preparation and use thereof” (USTAV ORGANICKE CHEMIE A BIOCHEMIE AV CR V.V.I., priority 2021, published 2025)

What was measured:
[1] = Formation of 1,5-cz-[M(Lig)] from Lig and M^II ions (metal dependent click-zip) (Charts 6, 7); type: physicochemical; details: MOPS/NaOH buffer pH 7.0; for conversion to 1,5-cz-[M(Lig)], Ca^II / conversion to 1,5-cz-[M(Lig)], Cd^II: TD728 in 50% i-PrOH
[2] = Alkali metal dependent formation of 1,5-cz-Lig and 1,4-cz-Lig isomers from Lig at pH 10.2 (Chart 14); type: physicochemical; details: Borate/(M^I)2CO3 buffer pH 10.2
[3] = Formation of 1,5-cz-[M(Lig)] from Lig and M^III ions (metal dependent click-zip) (Charts 4, 5); type: physicochemical; details: MOPS/NaOH buffer pH 7.0, TD728, TD827 in 50% i-PrOH; for conversion to 1,5-cz-[M(Lig)], Y^III: TD714 sum of two diastereoisomers
[4] = Formation of 1,5-cz-[Ln(Lig)] from Lig and Ln^III ions (metal dependent click-zip), MOPS/NaOH buffer pH 7.0, analytical HPLC (Charts 1, 2); details: MOPS/NaOH buffer pH 7.0
[5] = 1 hour at 80° C., TD714 sum of two diastereoisomers
[6] = B: 1 day at 80° C., visible analyte free precipitate

C#Cc1cccc(CN2CCN(CC(=O)O)CCN(Cc3cccc(CN=[N+]=[N-])n3)CCN(CP(=O)(O)O)CC2)n1 [TD714]
conversion to 1,5-cz-[M(Lig)], Ba^II ([1]; 1 week at 80° C.): 0% | conversion to 1,5-cz-[M(Lig)], Sr^II ([1]; 1 week at 80° C.): 0% | conversion to 1,5-cz-[M(Lig)], Ca^II ([1]; 1 week at 80° C.): 6% | conversion to 1,5-cz-[M(Lig)], Cd^II ([1]; 1 week at 80° C.): 92% | conversion to 1,5-cz-[M(Lig)], Ba^II ([1]; 1 hour at 80° C.): 0% | conversion to 1,5-cz-[M(Lig)], Sr^II ([1]; 1 hour at 80° C.): 0% | conversion to 1,5-cz-[M(Lig)], Ca^II ([1]; 1 hour at 80° C.): 0% | conversion to 1,5-cz-[M(Lig)], Cd^II [1, 5]: 89% | conversion to 1,4-cz-Lig isomer, Cs^I ([2]; B: 1 day at 80° C.): 44% | conversion to 1,4-cz-Lig isomer, K^I ([2]; B: 1 day at 80° C.): 46% | conversion to 1,4-cz-Lig isomer, Na^I ([2]; B: 1 day at 80° C.): 7% | conversion to 1,4-cz-Lig isomer, Rb^I ([2]; B: 1 day at 80° C.): 45% | conversion to 1,5-cz-Lig isomer, Cs^I ([2]; B: 1 day at 80° C.): 9% | conversion to 1,5-cz-Lig isomer, K^I ([2]; B: 1 day at 80° C.): 10% | conversion to 1,5-cz-Lig isomer, Na^I ([2]; B: 1 day at 80° C.): 81% | conversion to 1,5-cz-Lig isomer, Rb^I ([2]; B: 1 day at 80° C.): 9% | conversion to 1,4-cz-Lig isomer, Li^I [2, 6]: 12% | conversion to 1,5-cz-Lig isomer, Li^I [2, 6]: 15% | conversion to 1,5-cz-[M(Lig)], Y^III ([3]; 1 week at 80° C.): 89% | conversion to 1,5-cz-[M(Lig)], Y^III ([3]; 1 hour at 80° C.): 22% | conversion to 1,5-cz-[Ln(Lig)], Ce^III ([4]; after 1 week at 80° C.): 40% | conversion to 1,5-cz-[Ln(Lig)], Ce^III ([4]; after 1 hour at 80° C.): 1% | conversion to 1,5-cz-[Ln(Lig)], Dy^III ([4]; after 1 week at 80° C.): 91% | conversion to 1,5-cz-[Ln(Lig)], Dy^III ([4]; after 1 hour at 80° C.): 23% | conversion to 1,5-cz-[Ln(Lig)], Er^III ([4]; after 1 week at 80° C.): 93% | conversion to 1,5-cz-[Ln(Lig)], Er^III ([4]; after 1 hour at 80° C.): 34% | conversion to 1,5-cz-[Ln(Lig)], Eu^III ([4]; after 1 week at 80° C.): 85% | conversion to 1,5-cz-[Ln(Lig)], Eu^III ([4]; after 1 hour at 80° C.): 7% | conversion to 1,5-cz-[Ln(Lig)], Gd^III ([4]; after 1 week at 80° C.): 85% | conversion to 1,5-cz-[Ln(Lig)], Gd^III ([4]; after 1 hour at 80° C.): 9% | conversion to 1,5-cz-[Ln(Lig)], Ho^III ([4]; after 1 week at 80° C.): 93% | conversion to 1,5-cz-[Ln(Lig)], Ho^III ([4]; after 1 hour at 80° C.): 26% | conversion to 1,5-cz-[Ln(Lig)], La^III ([4]; after 1 week at 80° C.): 4% | conversion to 1,5-cz-[Ln(Lig)], La^III ([4]; after 1 hour at 80° C.): 0% | conversion to 1,5-cz-[Ln(Lig)], Lu^III ([4]; after 1 week at 80° C.): 93% | conversion to 1,5-cz-[Ln(Lig)], Lu^III ([4]; after 1 hour at 80° C.): 37% | conversion to 1,5-cz-[Ln(Lig)], Nd^III ([4]; after 1 week at 80° C.): 73% | conversion to 1,5-cz-[Ln(Lig)], Nd^III ([4]; after 1 hour at 80° C.): 3% | conversion to 1,5-cz-[Ln(Lig)], Pr^III ([4]; after 1 week at 80° C.): 80% | conversion to 1,5-cz-[Ln(Lig)], Pr^III ([4]; after 1 hour at 80° C.): 2% | conversion to 1,5-cz-[Ln(Lig)], Sm^III ([4]; after 1 week at 80° C.): 82% | conversion to 1,5-cz-[Ln(Lig)], Sm^III ([4]; after 1 hour at 80° C.): 5% | conversion to 1,5-cz-[Ln(Lig)], Tb^III ([4]; after 1 week at 80° C.): 92% | conversion to 1,5-cz-[Ln(Lig)], Tb^III ([4]; after 1 hour at 80° C.): 17% | conversion to 1,5-cz-[Ln(Lig)], Tm^III ([4]; after 1 week at 80° C.): 94% | conversion to 1,5-cz-[Ln(Lig)], Tm^III ([4]; after 1 hour at 80° C.): 40% | conversion to 1,5-cz-[Ln(Lig)], Yb^III ([4]; after 1 week at 80° C.): 93% | conversion to 1,5-cz-[Ln(Lig)], Yb^III ([4]; after 1 hour at 80° C.): 40%

C#Cc1cccc(CN2CCN(CP(=O)(O)c3ccccc3)CCN(Cc3cccc(CN=[N+]=[N-])n3)CCN(CP(=O)(O)c3ccccc3)CC2)n1 [TD921]
conversion to 1,5-cz-[M(Lig)], Ba^II ([1]; 1 week at 80° C.): 0% | conversion to 1,5-cz-[M(Lig)], Sr^II ([1]; 1 week at 80° C.): 0% | conversion to 1,5-cz-[M(Lig)], Ca^II ([1]; 1 week at 80° C.): 0% | conversion to 1,5-cz-[M(Lig)], Cd^II ([1]; 1 week at 80° C.): 96% | conversion to 1,5-cz-[M(Lig)], Ba^II ([1]; 1 hour at 80° C.): 0% | conversion to 1,5-cz-[M(Lig)], Sr^II ([1]; 1 hour at 80° C.): 0% | conversion to 1,5-cz-[M(Lig)], Ca^II ([1]; 1 hour at 80° C.): 0% | conversion to 1,5-cz-[M(Lig)], Cd^II [1, 5]: 92% | conversion to 1,4-cz-Lig isomer, Cs^I ([2]; A: 1 hour at 80° C.): 2% | conversion to 1,4-cz-Lig isomer, K^I ([2]; A: 1 hour at 80° C.): 2% | conversion to 1,4-cz-Lig isomer, Li^I ([2]; A: 1 hour at 80° C.): 1% | conversion to 1,4-cz-Lig isomer, Na^I ([2]; A: 1 hour at 80° C.): 2% | conversion to 1,4-cz-Lig isomer, Rb^I ([2]; A: 1 hour at 80° C.): 2% | conversion to 1,5-cz-Lig isomer, Cs^I ([2]; A: 1 hour at 80° C.): 2% | conversion to 1,5-cz-Lig isomer, K^I ([2]; A: 1 hour at 80° C.): 2% | conversion to 1,5-cz-Lig isomer, Li^I ([2]; A: 1 hour at 80° C.): 12% | conversion to 1,5-cz-Lig isomer, Na^I ([2]; A: 1 hour at 80° C.): 30% | conversion to 1,5-cz-Lig isomer, Rb^I ([2]; A: 1 hour at 80° C.): 2% | conversion to 1,4-cz-Lig isomer, Cs^I ([2]; B: 1 day at 80° C.): 31% | conversion to 1,4-cz-Lig isomer, K^I ([2]; B: 1 day at 80° C.): 31% | conversion to 1,4-cz-Lig isomer, Na^I ([2]; B: 1 day at 80° C.): 4% | conversion to 1,4-cz-Lig isomer, Rb^I ([2]; B: 1 day at 80° C.): 31% | conversion to 1,5-cz-Lig isomer, Cs^I ([2]; B: 1 day at 80° C.): 21% | conversion to 1,5-cz-Lig isomer, K^I ([2]; B: 1 day at 80° C.): 23% | conversion to 1,5-cz-Lig isomer, Na^I ([2]; B: 1 day at 80° C.): 89% | conversion to 1,5-cz-Lig isomer, Rb^I ([2]; B: 1 day at 80° C.): 21% | conversion to 1,4-cz-Lig isomer, Li^I [2, 6]: 6% | conversion to 1,5-cz-Lig isomer, Li^I [2, 6]: 86% | conversion to 1,5-cz-[M(Lig)], Sc^III ([3]; 1 week at 80° C.): 0% | conversion to 1,5-cz-[M(Lig)], Y^III ([3]; 1 week at 80° C.): 14% | conversion to 1,5-cz-[M(Lig)], Sc^III ([3]; 1 hour at 80° C.): 0% | conversion to 1,5-cz-[M(Lig)], Y^III ([3]; 1 hour at 80° C.): 0% | conversion to 1,5-cz-[Ln(Lig)], Ce^III ([4]; after 1 week at 80° C.): 0% | conversion to 1,5-cz-[Ln(Lig)], Ce^III ([4]; after 1 hour at 80° C.): 0% | conversion to 1,5-cz-[Ln(Lig)], Dy^III ([4]; after 1 week at 80° C.): 37% | conversion to 1,5-cz-[Ln(Lig)], Dy^III ([4]; after 1 hour at 80° C.): 1% | conversion to 1,5-cz-[Ln(Lig)], Er^III ([4]; after 1 week at 80° C.): 26% | conversion to 1,5-cz-[Ln(Lig)], Er^III ([4]; after 1 hour at 80° C.): 1% | conversion to 1,5-cz-[Ln(Lig)], Eu^III ([4]; after 1 week at 80° C.): 31% | conversion to 1,5-cz-[Ln(Lig)], Eu^III ([4]; after 1 hour at 80° C.): 1% | conversion to 1,5-cz-[Ln(Lig)], Gd^III ([4]; after 1 week at 80° C.): 28% | conversion to 1,5-cz-[Ln(Lig)], Gd^III ([4]; after 1 hour at 80° C.): 0% | conversion to 1,5-cz-[Ln(Lig)], Ho^III ([4]; after 1 week at 80° C.): 31% | conversion to 1,5-cz-[Ln(Lig)], Ho^III ([4]; after 1 hour at 80° C.): 1% | conversion to 1,5-cz-[Ln(Lig)], La^III ([4]; after 1 week at 80° C.): 0% | conversion to 1,5-cz-[Ln(Lig)], La^III ([4]; after 1 hour at 80° C.): 0% | conversion to 1,5-cz-[Ln(Lig)], Lu^III ([4]; after 1 week at 80° C.): 10% | conversion to 1,5-cz-[Ln(Lig)], Lu^III ([4]; after 1 hour at 80° C.): 1% | conversion to 1,5-cz-[Ln(Lig)], Nd^III ([4]; after 1 week at 80° C.): 43% | conversion to 1,5-cz-[Ln(Lig)], Nd^III ([4]; after 1 hour at 80° C.): 4% | conversion to 1,5-cz-[Ln(Lig)], Pr^III ([4]; after 1 week at 80° C.): 55% | conversion to 1,5-cz-[Ln(Lig)], Pr^III ([4]; after 1 hour at 80° C.): 5% | conversion to 1,5-cz-[Ln(Lig)], Sm^III ([4]; after 1 week at 80° C.): 42% | conversion to 1,5-cz-[Ln(Lig)], Sm^III ([4]; after 1 hour at 80° C.): 1% | conversion to 1,5-cz-[Ln(Lig)], Tb^III ([4]; after 1 week at 80° C.): 41% | conversion to 1,5-cz-[Ln(Lig)], Tb^III ([4]; after 1 hour at 80° C.): 1% | conversion to 1,5-cz-[Ln(Lig)], Tm^III ([4]; after 1 week at 80° C.): 18% | conversion to 1,5-cz-[Ln(Lig)], Tm^III ([4]; after 1 hour at 80° C.): 1% | conversion to 1,5-cz-[Ln(Lig)], Yb^III ([4]; after 1 week at 80° C.): 15% | conversion to 1,5-cz-[Ln(Lig)], Yb^III ([4]; after 1 hour at 80° C.): 1%
